Laboratory results: US20230226065A1, “ANTI-INFLAMMATORY COMPOSITIONS, METHODS AND USES THEREOF” (COMVITA LIMITED, priority 2020, published 2023)

Tests used:
[1] = tested on: MMP-9 secretion in differentiated THP-1 cells; experiment: LPS induced MMP-9 secretion in differentiated THP-1 cells (ELISA); type: cell-based, human; conditions: 6 μM Azithromycin positive control; LPS 1 μg/mL; P=0.00
Procedure: THP-1 cells (ATCC, ATCTIB202) were grown in RPMI-1640 (Gibco, 11875093)+0.05 mM 2-mercaptoethanol+10% fetal calf serum (FCS)+1% pen-strep. For experiments, the cells were cultured in RPMI-1640 medium with 10% fetal bovine serum (FBS) only.
THP-1 monocyte cells were seeded at a density of 2.5×10^5 cells/ml in 96-well plates and differentiated into macrophages using 10 ng/ml of phorbol 12-myristate 13-acetate (PMA) (Bergin et al) (Sigma, P1585-1MG, Lot #SLBX889, 100% purity) for 72 hours. PMA media was then removed from the differentiated THP-1 cells, the cells were then washed once in RPMI-1640 media and then left to rest for 5 hours.
The differentiated THP-1 cells were stimulated with LPS from E. coli 055:B5 (Sigma, L6529; Lot #037K4068). LPS tested at a concentration of 1 μg/ml (Kong et al). […] After 24 hours, the cell culture media was collected and measured for MMP-9 concentration using MMP-9 ELISA (R&D systems, RDSDY91105 lot #P239459 and DY008 Lot #P239900). […]
In order to better capture the variability, each treatment was done at least in triplicate in each plate (2 plates). Media from the triplicate wells were pooled and analysed in duplicates for the MMP-9 ELISA. […]

[2] = tested on: THP-1 cells; experiment: WST-1 cell viability assay, LPS-stimulated THP-1 cells; type: cell-based; conditions: 10 μg/mL dexamethasone; LPS co-stimulation 18 hours
Procedure: Human monocytic THP-1 cells were seeded in 96-well tissue-culture treated plates at a density of 50,000 cells/well in growth media (RPMI media supplemented with 10% fetal bovine serum, 2 mM L-glutamine and penicillin-streptomycin) overnight. […] Control wells were treated with hydrogen peroxide (0, 0.5, 1, and 2 mM) for 1 hour prior to addition of WST-1 reagent (Roche, NZ). WST-1 reagent was added to all wells at the end of the 18 hour incubation period, and absorbance readings were subsequently measured 30 min and 1 h and 10 mins after WST-1 addition. Cell viability expressed the percent change from the LPS-stimulated PBS control.

[3] = tested on: COX-2 protein expression in THP-1 cells; experiment: LPS-induced COX-2 protein expression in THP-1 cells (Western blot); type: cell-based, human
Procedure: THP-1 cells were seeded in 12-well tissue-culture treated plates at a density of 500,000 cells/well in growth media overnight. […] Cells were washed with cold PBS and lysed in RIPA buffer containing protease inhibitors (Sigma P2714) for 15 minutes on ice. Debris was pelleted by centrifugation at 14,000×g for 15 min and lysate supernatants were frozen at −80° C. for later analysis by western blot.
Western blots for semi-quantitative COX-2 (Abcam ab188183) protein expression were conducted on THP-1 monocyte cells lysed with RIPA buffer containing protease inhibitors. A total of 10 μg protein was loaded onto precast 10% acrylamide gels (BioRad, NZ) then separated by electrophoresis at 120 V at room temperature. […] The membranes were then incubated with the primary antibody that correspond to the protein of interest for 1 h. […] Western blot images were captured with an Amersham™ Imager 600 (GE Healthcare, Chicago, Ill., USA) and densitometry measurement of protein bands was analysed with the accompanying image analysis software.
For analysis of Western blots, densitometry measurements from the proteins of interest were normalised to the densitometry of p-actin for each sample. […] The significance level was set at p≤0.05.

[4] = tested on: active MMP-9; experiment: Gelatin gel zymography, active MMP-9 band; type: biochemical; conditions: NNGH 2.6 μM in developing buffer; active MMP-9
Procedure: Novex™ 10% Zymogram Plus (Gelatin) Protein Gels (15 wells) were purchased from Thermo Fisher Scientific Inc. (Auckland, New Zealand). All chemicals required for the zymogram analysis were also purchased from Thermo Fisher, these include Novex™ Sharp Pre-stained Protein Standard, Novex Tris-Glycine SDS sample buffer, Novex Tris-Glycine SDS running buffer, Novex Zymogram renaturing buffer and Novex Zymogram developing buffer. […] Gelatin gel zymography was performed as an independent technique to confirm the inhibition of MMP-9 from 3,6,7-trimethyllumazine. This technique uses a non-reducing SDS-PAGE (sodium dodecyl sulfate polyacrylamide gel electrophoresis) gel embedded with gelatin. Proteins are migrated and separated during electrophoresis. The SDS is removed after electrophoresis and the gel is then incubated with essential cofactors required for enzymatic activity. The embedded gelatin can be digested by MMP-9, resulting in clear bands on a dark blue background after staining with Coomassie blue dyes. The gelatinase activity is represented by band densitometry, which can be assessed with image analysis software. […]
After incubation, the gelatin gel was rinsed with water for three times (5 min each) under gentle agitation. […] MMP-9 activities were analysed using densitometry on ImageJ Version 1.52a. […]

[5] = molecular target: T1, recombinant MMP-9 enzyme (Homo sapiens, UniProt P14780); experiment: MMP-9 inhibitor screening assay (colorimetric); type: biochemical; conditions: NNGH at 1.3 μM
T1 construct: purchased Abcam ab139449
T1 sequence (P14780 94-707): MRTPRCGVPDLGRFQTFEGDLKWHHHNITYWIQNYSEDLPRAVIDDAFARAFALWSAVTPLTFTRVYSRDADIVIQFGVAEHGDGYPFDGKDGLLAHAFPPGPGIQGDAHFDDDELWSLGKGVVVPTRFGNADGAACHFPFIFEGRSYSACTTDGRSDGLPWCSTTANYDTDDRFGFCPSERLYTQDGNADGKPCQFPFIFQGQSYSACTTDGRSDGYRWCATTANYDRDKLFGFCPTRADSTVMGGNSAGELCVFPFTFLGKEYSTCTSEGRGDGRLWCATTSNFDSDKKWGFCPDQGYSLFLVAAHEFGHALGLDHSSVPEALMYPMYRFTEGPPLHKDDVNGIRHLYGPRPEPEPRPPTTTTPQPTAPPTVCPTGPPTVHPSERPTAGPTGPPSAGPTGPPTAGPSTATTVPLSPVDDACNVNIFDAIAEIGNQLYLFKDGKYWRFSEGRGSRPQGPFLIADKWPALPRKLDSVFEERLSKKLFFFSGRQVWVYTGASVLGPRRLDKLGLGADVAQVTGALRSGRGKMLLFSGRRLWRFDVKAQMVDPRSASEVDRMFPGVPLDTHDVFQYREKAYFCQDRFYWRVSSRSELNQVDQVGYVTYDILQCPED
Text: The MMP-9 inhibitor screening assay (colorimetric) kits were purchased from Abcam (Melbourne, Australia). The kit contains the recombinant MMP-9 enzyme, MMP inhibitor NNGH, MMP chromogenic substrate, the colorimetric assay buffer and 96-well clear microplate.
The colorimetric kit uses a thiopeptide as a chromogenic substrate (Ac-PLG-[2-mercapto-4-methyl-pentanoyl]-LG-OC2H5), which can be hydrolysed by MMPs to produce a sulfhydryl group. This intermediate product further reacts with DTNB [5,5′-dithiobis(2-nitrobenzoic acid), Ellman's reagent] to form 2-nitro-5-thiobenzoic acid, which can be detected by absorbance at 412 nm. The change in absorbance was measured using the SpectraMax iD3 multi-mode microplate reader (Molecular Devices, San Jose, USA). The assays are performed on a convenient 96-wells microplate with a final reaction volume of 100 μL. Prior to the assay, all testing samples and inhibitor controls were incubated with MMP-9 for 60 min at 37° C. […] The absorbance was measured at 1 min intervals during the first 20 min, then 10 min intervals till the end of assay.
Recombinant MMP-9 and the chromogenic substrate were used as the positive control to represent 100% enzyme activity. […] A range of 3,6,7-trimethyllumazine concentrations were diluted with the colorimetric assay buffer to measure the absorbance of the reaction product.

[6] = molecular target: T1, recombinant MMP-9 enzyme; experiment: MMP-9 inhibitor screening assay (fluorometric); type: biochemical; conditions: NNGH inhibitor control
Procedure: The MMP-9 inhibitor screening assay (fluorometric) kits were purchased from Abcam (Melbourne, Australia). The fluorometric kit contains the recombinant MMP-9 enzyme, MMP inhibitor NNGH (N-isobutyl-N-[4-methoxyphenylsulfonyl]glycyl hydroxamic acid), MMP fluorogenic substrate solubilised in DMSO, the fluorometric assay buffer and 96-well clear microplate.
Inhibitory activity on MMP-9 was assessed using the commercial MMP-9 inhibitor screening assay kit. MMP-9 activity was expressed as a change in fluorescence intensity measured using SpectraMax iD3 multi-mode microplate reader (Molecular Devices, San Jose, USA).
The assay employs a FRET-tagged (fluorescence resonance energy transfer) substrate, which can be hydrolysed by MMP-9 at a specific site (Abcam, 2018). The cleavage of the FRET substrate releases the quenched fluorescent Mca (7-methoxycoumarin-4-yl)-acetyl group (Abcam, 2018). The kit employs a quenched fluorogenic substrate Mca-Pro-Leu-Gly-Leu-Dpa-Ala-Arg-NH2, where the Mca fluorescence is quenched by Dpa until cleavage by MMPs. The amount of fluorescent product yielded by MMP-9 can be detected fluorometrically and it is proportional to the enzyme activity. Fluorescence were measured at ex320 nm-em395 nm to minimise fluorescence interference from 3,6,7-trimethyllumazine at ex330 nm-em470 nm. […]

## CC[C@H]1OC(=O)[C@H](C)[C@@H](O[C@H]2C[C@@](C)(OC)[C@@H](O)[C@H](C)O2)[C@H](C)[C@@H](O[C@@H]2O[C@H](C)C[C@H](N(C)C)[C@H]2O)[C@](C)(O)C[C@@H](C)CN(C)[C@H](C)[C@@H](O)[C@]1(C)O [Azithromycin]
[1]
  effect on MMP-9 secretion: inhibits MMP-9 secretion

## C[C@@H]1C[C@H]2[C@@H]3CCC4=CC(=O)C=C[C@]4(C)[C@@]3(F)[C@@H](O)C[C@]2(C)[C@@]1(O)C(=O)CO [Dexamethasone, reference compound]
[2]
  cell death (WST-1 cell viability): did not induce cell death
[3]; 10 μg/mL, LPS 24 hours, LPS positive control 1.26 ± 0.11, n=6
  COX-2 Relative expression (mean ± SEM): 0.85 ± 0.07

## COc1ccc2c(c1)c(CC(=O)O)c(C)n2C(=O)c1ccc(Cl)cc1 [Indomethacin, reference compound]
[3]; indomethacin 10 μmol/L
  reduction of LPS-induced COX-2 expression: did not significantly reduce

## COc1ccc(S(=O)(=O)N(CC(=O)NO)CC(C)C)cc1 [NNGH, N-isobutyl-N-[4-methoxyphenylsulfonyl]glycyl hydroxamic acid, reference compound]
[4]
  inhibition of gelatinase activity: completely inhibited
[5]
  inhibition of MMP-9 activity: inhibited most of the MMP-9 activity
[6]
  change in fluorescence (MMP-9 activity): almost no change in fluorescence
